# Source: article PMC6104039 (Nature Communications, 2018)
# “And” between values parts separate entries of the source, which are not always exact repeats. Equal entries are not always repeated.
# Tests used:
# [1] = test system: liver; assay: Lipidomic profiling of liver; assay type: in vivo, mice; conditions: for Ceramide 18:1/16:0 content of liver / Ceramide 18:1/18:0 content of liver / Ceramide 18:1/20:0 content of liver / Ceramide 18:1/22:0 content of liver / Ceramide 18:1/22:1 content of liver / Ceramide 18:1/24:0 content of liver / Ceramide 18:1/24:1 content of liver / SM 34:1 content of liver / SM 36:1 content of liver / SM 38:1 content of liver / SM 40:1 content of liver / SM 40:2 content of liver / SM 42:1 content of liver / SM 42:2 content of liver / SM 42:3 content of liver: individual mice; for Ceramide 18:1/16:0 content of liver / Ceramide 18:1/18:0 content of liver / Ceramide 18:1/20:0 content of liver / Ceramide 18:1/22:0 content of liver / Ceramide 18:1/22:1 content of liver / Ceramide 18:1/24:0 content of liver / Ceramide 18:1/24:1 content of liver: raw data Fig 3j; for SM 34:1 content of liver / SM 36:1 content of liver / SM 38:1 content of liver / SM 40:1 content of liver / SM 40:2 content of liver / SM 42:1 content of liver / SM 42:2 content of liver / SM 42:3 content of liver: raw data Fig 3k
# Experimental: Male C57BL6/J mice were obtained from the Animal Resources Centre in Perth (WA, Australia). Mice were housed at 22 ± 1 °C with a controlled 12:12 h light-dark cycle and had ad libitum access to water and either chow (8% calories from fat) or HFD (45% calories from fat)[66] for 4–6 weeks. […] Treatment was commenced at the same time as mice were randomised to dietary groups. The experiments were approved by the UNSW animal care and ethics committee (ACEC 15/48B), and followed guidelines issued by the National Health and Medical Research Council of Australia.
# Lipids were extracted from frozen tissue samples or cells using a two-phase procedure with methyl-tert-butyl ether (MTBE)/methanol/water (10:3:2.5, v/v/v)[67]. Frozen tissue samples (~20 mg) were homogenized in 0.2 mL methanol containing 0.01% butylated hydroxytoluene (BHT), using a Precellys 24 homogenizer and Cryolys cooling unit (Bertin Technologies) with CK14 (1.4-mm ceramic) beads. The homogenates were spiked with an internal standard mixture comprising 5 nmole 19:0/19:0 phosphatidylcholine and 2 nmole each of 17:0/17:0 phosphatidylethanolamine, 17:0/17:0 phosphatidylserine, 17:0/17:0 d5-diacylglycerol, 17:0/17:0 phosphatidylglycerol, 14:0/14:0/14:0/14:0 cardiolipin, 18:1/12:0 SM, 18:1/17:0 ceramide, 18:1/12:0 glucosylceramide, 18:1/12:0 lactosylceramide, 18:1/12:0 sulfatide (all from Avanti Polar Lipids, USA), and 17:0/17:0/17:0 TAG (Cayman Chemical, USA), then transferred to 10 mL screw cap glass tubes. The homogenization tubes containing beads were then washed with another 0.3 mL methanol, and this wash was combined with the first methanol extract, after which 1.7 mL MTBE was added and the samples were sonicated in an ice-cold sonicating water bath (Thermoline Scientific, Australia) for 30 min. Phase separation was induced by addition of 417 µL of mass spectrometry-grade water followed by vortexing and centrifugation at 1000 × g for 10 min. The upper organic phase was collected into 5 mL glass tubes. The lower phase was re-extracted by adding 1 mL MTBE, 300 μL methanol, and 250 μL water. The organic phases were combined in the 5 mL glass tubes and dried under vacuum in a Savant SC210 SpeedVac (Thermo Scientific), then reconstituted in 500 μL methanol and stored at −20 °C until analysis.
# Lipidomic profiling was performed on a QExactive Plus mass spectrometer with heated electrospray ionization (HESI) probe and a Dionex UltiMate 2000 LC pump (Thermo Fisher Scientific). Extracts were resolved on a 2.1 × 100 mm Waters Acquity C18 UPLC column (1.7 µm […]), using a binary gradient in which mobile phase A consisted of acetonitrile:water (60:40), 10 mM ammonium formate, 0.1% formic acid; and mobile phase B was isopropanol:acetonitrile (90:10), 10 mM ammonium formate, 0.1% formic acid[68]. The flow rate was 260 µL/min and column oven 55 °C. Data was acquired in full scan/data-dependent MS^2 mode (full scan resolution 70,000 FWHM, scan range 400–1200 m/z). The ten most abundant ions in each cycle were subjected to MS^2 using an isolation window of 1.4 m/z, collision energy 30 eV, resolution 17,500, maximum integration time 110 ms and dynamic exclusion window 10 s. An exclusion list of background ions was used based on a solvent blank. LipidSearch v4.1.30 software (ThermoFisher Scientific) was used for chromatogram alignment, peak identification and integration. Each lipid peak was manually verified for column elution time and characteristic fragment ions. Data were then exported to an Excel spreadsheet for normalisation of each lipid to its class-specific internal standard, and lipid concentrations were calculated relative to the internal standard.
# Data were log transformed, then subjected to two-tailed t-tests adjusted for multiple comparisons using GraphPad PRISM (Benjamini, Krieger and Yekutieli correction, Q = 1%).
# [2] = test system: cultured primary myotubes; assay: Ceramide content of cultured primary myotubes; assay type: cell-based, murine; conditions: 1 μM
# Source text: myotubes would go a long way in making the muscle component of this work more […]
# Response: We agree with the reviewer that experiments in muscle cells often allow additional mechanistic studies to be undertaken. We investigated this possibility in immortalised and primary […]
# where C18:0 ceramide is by the far the dominant ceramide species, cultured muscle cells contain much higher levels of other ceramides, particularly C16:0 (see figure below). This divergence in ceramide profile between cultured myotubes and muscle tissue in vivo has been reported by other […]
# C18:0 ceramide content in cultured primary myotubes by ~30% (P = 0.02), whilst having no […]
# profile of skeletal muscle, CerS1 inhibition experiments with myotubes would have limited translatability to the in vivo setting.
# (1 picture or pasted object on this page, not shown here)
# [3] = test system: SkM; assay: Real-time PCR of respiratory complex subunits and regulators of mitochondrial biogenesis in SkM; assay type: in vivo, mice
# Experimental: PCR (40 cycles) was performed on a LightCycler 480 (Roche) using SensiFAST SYBR mastermix (Bioline). For quantification of CerS1 and CerS2 expression, total RNA was purified from mouse tissues with TRIzol reagent (Sigma-Aldrich), followed by DNase treatment (Promega), and reverse transcribed using random hexamer primers with FirstStrand cDNA synthesis kit (Roche), according to manufacturer’s instructions. CerS1 and CerS2 gene expression was determined using a standard curve of Ct against input cDNA, and normalised to 18s RNA. For mitochondrial genes and transcriptional regulators in SkM, total RNA was prepared with TRIzol, and oligo dT primer was used for reverse transcription. Relative gene expression was determined using the ΔΔCt method, with 36B4 and Rpl13 as the reference genes. Samples with excessively high Ct values (Ct > 30 for the housekeeping genes) were removed from data analysis (two samples for Fig. 6a, four samples for Fig. 6g). Gene-specific primers were as follows: […]
compound,measurement,setting,value
"C[C@@](N)(CO)CCc1ccc(OCc2ccc(Cl)c(Cl)c2)cc1 [P053, (S)-2-amino-4-(4-(3,4-dichlorobenzyloxy)phenyl)-2-methylbutan-1-ol]",Ceramide 18:1/16:0 content of liver,[1]; Chow + P053,0.263 and 0.826 and 0.657 and 1.600 and 0.958 and 0.311 and 0.952 and 1.950 and 1.430 and 1.980
same,Ceramide 18:1/18:0 content of liver,[1]; Chow + P053,0.468 and 0.536 and 0.500 and 0.564 and 0.490 and 0.488 and 0.800 and 0.676 and 0.526 and 0.572
same,Ceramide 18:1/20:0 content of liver,[1]; Chow + P053,0.373 and 0.356 and 0.495 and 0.460 and 0.417 and 0.442 and 0.880 and 0.398 and 0.505 and 0.396
same,Ceramide 18:1/22:0 content of liver,[1]; Chow + P053,3.920 and 1.760 and 3.420 and 5.450 and 4.500 and 5.040 and 3.220 and 5.390 and 4.280 and 5.730
same,Ceramide 18:1/22:1 content of liver,[1]; Chow + P053,0.723 and 0.782 and 0.523 and 0.904 and 0.601 and 0.629 and 0.682 and 0.527 and 0.912 and 0.679
same,Ceramide 18:1/24:0 content of liver,[1]; Chow + P053,3.590 and 2.080 and 4.670 and 4.260 and 5.640 and 4.820 and 3.660 and 3.820 and 3.320 and 4.860
same,Ceramide 18:1/24:1 content of liver,[1]; Chow + P053,6.030 and 5.880 and 4.990 and 7.190 and 10.500 and 7.070 (2×) and 5.770 and 7.700 and 9.200
same,SM 34:1 content of liver,[1]; Chow + P053,166.01 and 387.90 and 294.94 and 188.63 and 560.02 and 385.72 and 339.20 and 244.42 and 416.06 and 213.21
same,SM 36:1 content of liver,[1]; Chow + P053,17.50 and 23.09 and 28.72 and 28.48 and 31.35 and 32.32 and 36.07 and 17.60 and 29.53 and 28.44
same,SM 38:1 content of liver,[1]; Chow + P053,20.23 and 36.64 and 18.78 and 30.07 and 30.24 and 24.30 and 33.98 and 28.61 and 27.66 and 25.39
same,SM 40:1 content of liver,[1]; Chow + P053,190.28 and 236.56 and 278.04 and 382.12 and 238.06 and 386.25 and 326.88 and 330.28 and 377.35 and 269.17
same,SM 40:2 content of liver,[1]; Chow + P053,31.01 and 36.97 and 24.71 and 36.72 and 38.54 and 35.80 and 48.00 and 37.75 and 38.85 and 32.99
same,SM 42:1 content of liver,[1]; Chow + P053,17.79 and 25.33 and 19.04 and 17.96 and 14.02 and 33.47 and 24.89 and 25.97 and 20.36 and 14.52
same,SM 42:2 content of liver,[1]; Chow + P053,265.43 and 723.53 and 60.59 and 173.83 and 445.88 and 448.77 and 411.18 and 225.87 and 409.74 and 354.33
same,SM 42:3 content of liver,[1]; Chow + P053,12.99 and 95.71 and 34.45 and 42.03 and 46.27 and 40.91 and 37.02 and 32.31 and 26.34 and 23.58
same,Ceramide 18:1/16:0 content of liver,[1]; HFD + P053,1.320 and 0.972 and 0.437 and 1.310 and 0.312 and 0.006 and 2.340 and 2.140 and 1.290 and 1.500
same,Ceramide 18:1/18:0 content of liver,[1]; HFD + P053,0.435 and 0.273 and 0.474 and 0.459 and 0.643 and 0.366 and 0.820 and 0.267 and 0.974 and 0.526
same,Ceramide 18:1/20:0 content of liver,[1]; HFD + P053,0.582 and 0.659 and 1.010 and 1.000 and 0.971 and 0.637 and 0.716 and 0.382 and 1.670 and 1.340
same,Ceramide 18:1/22:0 content of liver,[1]; HFD + P053,5.900 and 4.030 and 8.630 and 5.080 and 3.630 and 4.930 and 8.270 and 6.990 and 8.250 and 9.280
same,Ceramide 18:1/22:1 content of liver,[1]; HFD + P053,0.333 and 0.644 and 0.674 and 0.925 and 0.703 and 0.380 and 0.572 and 0.319 and 0.786 and 0.444
same,Ceramide 18:1/24:0 content of liver,[1]; HFD + P053,5.470 and 0.260 and 4.890 and 2.480 and 1.780 and 2.580 and 4.330 and 4.610 and 7.520 and 5.820
same,Ceramide 18:1/24:1 content of liver,[1]; HFD + P053,6.580 and 2.880 and 4.960 and 4.030 and 5.720 and 2.860 and 6.330 and 6.390 and 11.600 and 5.550
same,SM 34:1 content of liver,[1]; HFD + P053,482.51 and 71.17 and 450.03 and 341.58 and 602.82 and 140.43 and 342.86 and 326.17 and 1409.61 and 780.28
same,SM 36:1 content of liver,[1]; HFD + P053,53.21 and 102.16 and 78.05 and 79.54 and 65.66 and 116.67 and 78.22 and 28.49 and 259.61 and 108.18
same,SM 38:1 content of liver,[1]; HFD + P053,71.47 and 53.18 and 46.58 and 23.22 and 42.32 and 78.12 and 59.56 and 48.00 and 174.38 and 50.63
same,SM 40:1 content of liver,[1]; HFD + P053,580.97 and 447.50 and 671.33 and 376.94 and 209.01 and 396.09 and 367.60 and 345.17 and 872.91 and 711.11
same,SM 40:2 content of liver,[1]; HFD + P053,46.18 and 47.77 and 24.90 and 19.09 and 21.42 and 31.04 and 27.87 and 23.30 and 72.99 and 30.73
same,SM 42:1 content of liver,[1]; HFD + P053,18.56 and 11.22 and 9.61 and 4.95 and 13.26 and 9.80 and 20.61 and 8.52 and 19.00 and 16.17
same,SM 42:2 content of liver,[1]; HFD + P053,531.45 and 245.25 and 263.63 and 192.83 and 186.28 and 157.29 and 222.03 and 342.17 and 572.48 and 255.77
same,SM 42:3 content of liver,[1]; HFD + P053,38.83 and 26.76 and 24.26 and 23.94 and 22.31 and 29.44 and 41.75 and 49.23 and 92.66 and 37.38
same,265 lipids measured in liver,[1]; chow or HFD,none was significantly affected
same,reduction of C18:0 ceramide content,[2],~ 30%
same,expression of Gabp1α and Nfe2l2,[3],significantly increased
same,"genes encoding respiratory complex subunits (Co-2, Cytb, Atp6, Ndufb5, Atp5o, Cycs, Cox5b)",[3],significant up-regulation
